Measured values taken from patent publication US4822790A, “1-Sulfo-2-oxoazetidine derivatives and their production” (Takeda Chemical Industries, Ltd., priority 1980, dated 1989).
Values after ≈ are worked out from the molar mass of the structure shown. Counter-ions that a name gives are not always drawn.

Columns and labels:
Type in all cases: cell-based
Escherichia coli T-7 = assay: Antibacterial test (MIC), Escherichia coli T-7; conditions: Escherichia coli, T7; medium TSA; read-out: Minimum inhibitory concentration (MIC)
Text: (§1) The following is media and compounds employed in the antibacterial test.
(§2) TSA=Trypticase soy agar [Baltimore Biologicals (U.S.A.)]
(§3) B-TSA=Blood trypticase soy agar

[1] = test system: Pseudomonas aeruginosa IFO 3455; assay: Antibacterial test (MIC), Pseudomonas aeruginosa IFO 3455; conditions: Pseudomonas aeruginosa, IFO3455, read-out: Minimum inhibitory concentration (MIC)
Text: as §1, §2, §3

[2] = test system: Streptococcus mitis America; assay: Antibacterial test (MIC), Streptococcus mitis America; conditions: Streptococcus mitis, read-out: Minimum inhibitory concentration (MIC)
Text: as §1, §2, §3

Escherichia coli 0-111 = assay: Antibacterial test (MIC), Escherichia coli 0-111; conditions: Escherichia coli, 0111; medium TSA; read-out: Minimum inhibitory concentration (MIC)
Text: as §1, §2, §3

[3] = test system: Staphylococcus aureus 308A-1; assay: Antibacterial test (MIC), Staphylococcus aureus 308A-1; conditions: Staphylococcus aureus, 308A1, read-out: Minimum inhibitory concentration (MIC)
Text: as §1, §2, §3

[4] = test system: Klebsiella pneumoniae TN 1711; assay: MIC by agar dilution method (Experiment C), Klebsiella pneumoniae TN 1711; conditions: TN1711, Trypticase Soy agar, about 10^8 CFU/ml, 37° C. overnight, read-out: Minimal inhibitory concentration (MIC)
Description: (§4) The tables given below set forth the minimal inhibitory concentrations (MIC) of some typical compounds [I]C as obtained in the working examples. The minimal inhibitory concentrations of the tested compounds are determined by the agar dilution method. Namely, 1.0 ml. of aqueous solution of the tested compounds diluted by serial dilutions is poured into test petri dish. Subsequently 9.0 ml. of Trypticase Soy agar is poured into the dish and mixed. On the mixed agar plate, one loopful of bacterial suspension (about 10^8 CFU/ml.) of test microorganism is streaked. After the incubation at 37° C. overnight, the lowest concentration of the tested compounds which cause apparently complete inhibition of growth of the test microorganism is taken to be minimal inhibitory concentration. (2) Klebsiella pneumoniae TN 1711

[5] = test system: Enterobacter cloacae IFO 12937; assay: MIC by agar dilution method (Experiment C), Enterobacter cloacae IFO 12937; conditions: IFO12937, Trypticase Soy agar, about 10^8 CFU/ml, 37° C. overnight, read-out: Minimal inhibitory concentration (MIC)
Description: as §4, with “(1) Enterobacter cloacae IFO 12937” for “(2) Klebsiella pneumoniae TN 1711”

[6] = test system: Streptococcus pyogenes E-14; assay: Antibacterial test (MIC), Streptococcus pyogenes E-14; conditions: Streptococcus pyogenes, E14, read-out: Minimum inhibitory concentration (MIC)
Text: as §1, §2, §3

[7] = test system: Streptococcus pneumoniae Type I; assay: Antibacterial test (MIC), Streptococcus pneumoniae Type I; conditions: Streptococcus pneumoniae, read-out: Minimum inhibitory concentration (MIC)
Text: as §1, §2, §3

MIC [4]	MIC [5]	SMILES	MIC (Escherichia coli T-7)	MIC (Escherichia coli 0-111)	further results
		O=C(NC1CN(S(=O)(=O)O)C1=O)[C@H](NC(=O)N1CCN(N=Cc2ccco2)C1=O)c1ccccc1 (stereo partly drawn) [Compound I, Sodium 3-[D-2-[(2-oxo-3-furfurylideneaminoimidazolidin-1-yl)-carboxamido]-2-phenylacetamido]-2-oxoazetidine-1-sulfonate]	> 100 µg/mL	3.13 µg/mL	MIC [1]: 3.13 µg/mL; MIC [2]: 3.13 µg/mL; MIC [3]: 3.13 µg/mL
0.78 µg/mL	3.13 µg/mL	COC(=O)[C@H]1[C@@H](NC(=O)/C(=N\OC(C)(C)C(=O)O)c2csc(N)n2)C(=O)N1S(=O)(=O)O (relative stereo) [Example No. 68C, cis-3-[2-(2-amino-4-thiazolyl)-2-(1-methyl-1-carboxyethyloxyimino)acetamido]-4-methoxycarbonyl-2-oxoazetidine-1-sulfonic acid disodium salt]			
3.13 µg/mL (≈ 6.74 µM)	6.25 µg/mL (≈ 13.5 µM)	CC(C)(O/N=C(\C(=O)N[C@H]1C(=O)N(S(=O)(=O)O)[C@@H]1C(N)=O)c1csc(N)n1)C(=O)O (relative stereo) [Example No. 144C, trans-3-[2-(2-amino-4-thiazolyl)-2-(1-methyl-1-carboxyethyloxyimino)acetamido]-4-carbamoyl-2-oxoazetidine-1-sulfonic acid (syn-isomer)]			
		O=C(NC1CN(S(=O)(=O)O)C1=O)[C@H](NC(=O)N1CCN(N=Cc2cccs2)C1=O)c1ccccc1 (stereo partly drawn) [Compound K, Sodium 3-[D-2-[[2-oxo-3-(thiophen-2-aldoimino)-imidazolidin-1-yl]-carboxamido]-2-phenylacetamido]-2-oxoazetidine-1-sulfonate]	> 100 µg/mL	0.39 µg/mL	
		CCN1CCN(C(=O)N[C@@H](C(=O)NC2CN(S(=O)(=O)O)C2=O)c2ccccc2)C(=O)C1=O (single isomer, unassigned) [Compound B, Sodium 3-[D(-)-N-(4-ethyl-2,3-dioxo-1-piperazinocarbonyl)-phenylglycinamido]-2-oxoazetidine-1-sulfonate]	> 100 µg/mL	0.2 µg/mL	
6.25 µg/mL		CO/N=C(\C(=O)N[C@H]1C(=O)N(S(=O)(=O)O)[C@H]1COC(N)=O)c1csc(N)n1 (relative stereo) [Example No. 138C, sodium cis-3-[2-(2-amino-4-thiazolyl)-2-methoxyiminoacetamido]-4-carbamoyloxymethyl-2-oxoazetidine-1-sulfonate (syn-isomer)]			
6.25 µg/mL (≈ 12.7 µM)	3.13 µg/mL (≈ 6.34 µM)	COC(=O)C[C@@H]1[C@@H](NC(=O)/C(=N\OC(C)(C)C(=O)O)c2csc(N)n2)C(=O)N1S(=O)(=O)O (relative stereo) [Example No. 158C, trans-3-[2-(2-amino-4-thiazolyl)-2-(1-methyl-1-carboxyethyloxyimino)acetamido]-4-methoxycarbonylmethyl-2-oxo-azetidine-1-sulfonic acid (syn-isomer)]			
		CCN1CCN(C(=O)NC(C(=O)NC2CN(S(=O)(=O)O)C2=O)c2csc(N)n2)C(=O)C1=O (stereo not drawn) [Compound D, Sodium 3-[2-(4-ethyl-2,3-dioxo-1-piperazinocarboxamido)-2-(2-amino-4-thiazolyl)-acetamido]-2-oxoazetidine-1-sulfonate]	> 100 µg/mL	0.1 µg/mL	
0.39 µg/mL (≈ 0.84 µM)	1.56 µg/mL (≈ 3.36 µM)	CC(C)(O/N=C(\C(=O)N[C@H]1C(=O)N(S(=O)(=O)O)[C@H]1C(N)=O)c1csc(N)n1)C(=O)O (relative stereo) [Example No. 133C, cis-3-[2-(2-amino-4-thiazolyl)-2-(1-methyl-1-carboxyethyloxyimino)acetamido]-4-carbamoyl-2-oxoazetidine-1-sulfonic acid (syn-isomer)]			
		CCCCCCCCN1CCN(C(=O)NC(C(=O)NC2CN(S(=O)(=O)O)C2=O)c2csc(N)n2)C(=O)C1=O (stereo not drawn) [Compound H, Sodium 3-[2-(4-n-octyl-2,3-dioxo-1-piperazinocarboxamido)-2-(2-amino-4-thiazolyl)-acetamido]2-oxoazetidine-1-sulfonate]	> 100 µg/mL	3.13 µg/mL	MIC [6]: 3.13 µg/mL; MIC [7]: 3.13 µg/mL; MIC [3]: 3.13 µg/mL
0.2 µg/mL	6.25 µg/mL	COC(=O)[C@H]1[C@@H](NC(=O)/C(=N\OCC(=O)O)c2csc(N)n2)C(=O)N1S(=O)(=O)O (relative stereo) [Example No. 65C, cis-3-[2-(2-amino-4-thiazolyl)-2-carboxylmethyloxyiminoacetamido]-4-methoxycarbonyl-2-oxoazetidine-1-sulfonic acid disodium salt]			
		CCCCCCCCN1CCN(C(=O)N[C@@H](C(=O)NC2CN(S(=O)(=O)O)C2=O)c2ccccc2)C(=O)C1=O (stereo partly drawn) [Compound G, Sodium 3-[D-2-(4-n-octyl-2,3-dioxo-1-piperazinocarboxamido)-2-phenylacetamido]-2-oxoazetidine-1-sulfonate]	> 100 µg/mL	0.78 µg/mL	
	1.56 µg/mL	C=CCO/N=C(\C(=O)N[C@H]1C(=O)N(S(=O)(=O)O)[C@H]1C(=O)OC)c1csc(N)n1 (relative stereo) [Example No. 72C, sodium cis-3-[2-(2-amino-4-thiazolyl)-2-allyloxyiminoacetamido]-4-methoxycarbonyl-2-oxoazetidine-1-sulfonate]			
0.39 µg/mL (≈ 0.792 µM)	3.13 µg/mL (≈ 6.36 µM)	CC(=O)NC[C@H]1[C@@H](NC(=O)/C(=N\OC(C)(C)C(=O)O)c2csc(N)n2)C(=O)N1S(=O)(=O)O (relative stereo) [Example No. 147C, cis-3-[2-(2-amino-4-thiazolyl)-2-(1-methyl-1-carboxyethyloxyimino)acetamido]-4-acetamidomethyl-2-oxoazetidine-1-sulfonic acid (syn-isomer)]			

SMILES	MIC [4]	MIC [5]	MIC (Escherichia coli T-7)	MIC (Escherichia coli 0-111)	further results
CC(=O)OC[C@H]1[C@@H](NC(=O)/C(=N\OC(C)(C)C(=O)O)c2csc(N)n2)C(=O)N1S(=O)(=O)O (relative stereo) [Example No. 136C, cis-3-[2-(2-amino-4-thiazolyl)-2-(1-methyl-1-carboxyethyloxyimino)acetamido]-4-acetoxymethyl-2-oxoazetidine-1-sulfonic acid disodium salt (syn-isomer)]	1.56 µg/mL				
